According to patent publication US12404242B2, “Compositions and methods for making and using small molecules in the treatment of cancer” (Reglagene, Inc., priority 2021, dated 2025):
≈ marks a conversion by molar mass, not a printed value. Read-outs that look alike come from different tables or passages of the source.

Key:
LNCaP cells = assay: Cell viability (AlamarBlue), LNCaP prostate cancer cells; assay type: cell-based, human; conditions: 72 hours of treatment
Summary of the method: (§1)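 EC50 from AlamarBlue fluorescence after 72 h compound exposure at rising concentrations; readings normalized to no-treatment wells. Compound added 24 h post-plating.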

MCF7 cells = assay: Cell viability (AlamarBlue), MCF7 breast cancer cells; assay type: cell-based; conditions: Homo sapiens, 72 hours of treatment
Experimental: (§2) In another exemplary method, half maximal effective concentration (EC50) was determined for some compounds and their isomers as disclosed herein in a variety of human cancer cell lines. In brief, cells from two prostate cancer cell lines (LNCaP, 22RV1), one glioblastoma cell line (U87), one breast cancer cell line (MCF7), a glioma cell line (LN18), a normal prostate cell line (RWPE1), and a glioblastoma cell line (T98G) were plated in a multi-well plate. After 24 hours, one of the compounds herein was added to the well at increasing concentrations. After 72 hours of treatment, cell viability was assessed using AlamrBlue® (Invitrogen) and fluorescence was read using the CLARIOstar Plus Multilabel Plate Reader (BMG Labtech). Samples were normalized to no treatment controls. EC50 values were determined using GraphPad Prism.

U87 cells = assay: Cell viability (AlamarBlue), U87 glioblastoma cells; assay type: cell-based, human; conditions: 72 hours of treatment
Summary of the method: as §1

22RV1 cells = assay: Cell viability (AlamarBlue), 22RV1 prostate cancer cells; assay type: cell-based, human; conditions: 72 hours of treatment
Summary of the method: as §1

RWPE1 cells = assay: Cell viability (AlamarBlue), RWPE1 normal prostate cells; assay type: cell-based, human; set-up: key to EC50 (μM) in RWPE1 cells: Inactive: less than 50% inhibition at the highest concentration tested at 50 μM; conditions: 72 hours of treatment, normal prostate cell line
Experimental: as §2

[1] = Kinetic solubility in aqueous PBS buffer (HPLC-MS); assay type: physicochemical; conditions: kinetic from dmso stock
Experimental: In another exemplary method, central nervous system multiparameter optimization (CNS MPO) score and kinetic solubility of selected compounds was determined. CNS MPO score for compounds and their isomers disclosed herein were calculated using an algorithm that uses a weighted scoring function assessing 6 key physicochemical properties (clogP, clogD, MW, TPSA, HBD, and pKa) for blood-brain-barrier (BBB penetration). CNS MPO score ranged from 0 and 6.0 with scores≥4.0 used as a cut-off to select compounds that can have a high probability of accumulating in the CNS. Kinetic solubility of a compound is the maximum solubility of the fastest precipitating species of the compound. Kinetic solubility was determined by preparing a concentrated stock solution for compounds and their isomers disclosed herein in an organic solvent (DMSO), after which the solution was mixed with an aqueous PBS buffer and then filtered. Filtrate was tested to quantify the kinetic solubilty using HPLC-MS calibration curve. The CNS MPO Score and kinetic solubility of the compounds tested are provided in Table 7 where “ND” means not determined.

cancer cell = assay: Cancer cell viability, cell line not stated (per-compound ranges in description); assay type: cell-based; conditions: 'In some embodiments', values worded 'about', read-out: EC50 in cancer cell viability (range stated in description)
Experimental: as §2

[2] = 'In some embodiments', values worded 'about', read-out: kinetic solubility (range stated in description)

SMILES | EC50 (MCF7 cells) | EC50 (LNCaP cells; Homo sapiens, LNCaP, 72 h) | EC50 (22RV1 cells; Homo sapiens, 22Rv1, 72 h) | solubility kinetic [1, 2] | EC50 (cancer cell) | further results
COC1CC(C(=O)NC(=O)Nc2ccc(Oc3ccc(C#N)cn3)c(C)c2)C1 (single isomer, unassigned) [Compound 16A, N-((4-((5-cyanopyridin-2-yl)oxy)-3-methylphenyl)carbamoyl)-3-methoxycyclobutane-1-carboxamide] | 12.7 µM | 2.9 µM | – | – | – | EC50 (U87 cells): 10 µM; EC50 (22RV1 cells): 5.8 µM; EC50 (μM) in RWPE1 cells (RWPE1 cells): Inactive
COC1CCC(C(=O)NC(=O)Nc2ccc(Oc3ncccn3)c(F)c2)CC1 (stereo not shown) [Compound 13, 3-[3-fluoro-4-(pyrimidin-2-yloxy)phenyl]-1-(4-methoxycyclohexanecarbonyl)urea] | 11.3 µM | 17.4 µM | 14.1 µM | – | – | –
COC12CC(C(=O)NC(=O)Nc3cc(C)c(Oc4ncc(Cl)cn4)c(F)c3)(C1)C2 [drawing 277, N-((4-((5-chloropyrimidin-2-yl)oxy)-3-fluoro-5-methylphenyl)carbamoyl)-3-methoxybicyclo[1.1.1]pentane-1-carboxamide] | – | – | – | 1.5 to 3.5 µM (≈ 0.631 to 1.47 µg/mL) | 34 to 65 nM | –
COC1CC(C(=O)NC(=O)Nc2ccc(C)c(Oc3nccs3)c2)C1 (stereo not shown) [drawing 279, 3-methoxy-N-((4-methyl-3-(thiazol-2-yloxy)phenyl)carbamoyl)cyclobutane-1-carboxamide] | – | – | – | 7 to 11 µM (≈ 2.53 to 3.98 µg/mL) | 10 to 50 nM | –
COC1CC(C(=O)NC(=O)Nc2ccc(C)c(Oc3ccccn3)c2)C1 (stereo not shown) [drawing 280, 3-methoxy-N-((4-methyl-3-(pyridin-2-yloxy)phenyl)carbamoyl)cyclobutane-1-carboxamide] | – | – | – | 10 to 14 µM (≈ 3.55 to 4.98 µg/mL) | 2 to 7 nM | –
COC1CC(C(=O)NC(=O)Nc2ccc(C)c(Oc3ccc(F)cn3)c2)C1 (stereo not shown) [drawing 281, N-((3-((5-fluoropyridin-2-yl)oxy)-4-methylphenyl)carbamoyl)-3-methoxycyclobutane-1-carboxamide] | – | – | – | 5 to 9 µM (≈ 1.87 to 3.36 µg/mL) | 5 to 30 nM | –
COC12CC(C(=O)NC(=O)Nc3ccc(C)c(Oc4ncccn4)c3)(C1)C2 [drawing 283, 3-methoxy-N-((4-methyl-3-(pyrimidin-2-yloxy)phenyl)carbamoyl)bicyclo[1.1.1]pentane-1-carboxamide] | – | – | – | 4 to 8 µM (≈ 1.47 to 2.95 µg/mL) | 11 to 20 nM | –

More lines, main results first:

EC50 (MCF7 cells) | EC50 (LNCaP cells; Homo sapiens, LNCaP, 72 h) | EC50 (22RV1 cells; Homo sapiens, 22Rv1, 72 h) | solubility kinetic [1, 2] | EC50 (cancer cell) | SMILES | further results
11.5 µM | – | – | – | – | COC1CC(C(=O)NC(=O)Nc2ccc(Oc3ccc(F)cn3)c(C)c2)C1 (single isomer, unassigned) [Compound 15A, N-((4-((5-fluoropyridin-2-yl)oxy)-3-methylphenyl)carbamoyl)-3-methoxycyclobutanecarboxamide] | EC50 (LNCaP cells): 1.6 µM; EC50 (U87 cells): 5.5 µM; EC50 (22RV1 cells): 4.1 µM; EC50 (μM) in RWPE1 cells (RWPE1 cells): Inactive
20.9 µM | 19 µM | 41 µM | – | – | Cc1cc(NC(=O)NC(=O)C2COC2)ccc1Oc1ncc(Cl)cn1 [Compound 2, 1-{4-[(5-chloropyrimidin-2-yl)oxy]-3-methylphenyl}-3-(oxetane-3-carbonyl)urea] | –
2.5 µM | 6.3 µM | 17.8 µM | – | – | COC1CC(C(=O)NC(=O)Nc2ccc(Oc3cnc(N4CCOCC4)nc3)c(C)c2)C1 (stereo not shown) [Compound 44, 3-methoxy-N-((3-methyl-4-((2-morpholinopyrimidin-5-yl)oxy)phenyl)carbamoyl)cyclobutane-1-carboxamide] | solubility kinetic ([1]; DMSO stock mixed with aqueous PBS buffer, filtered, read-out: Kinetic Solubility): 0.95 µM (≈ 0.419 µg/mL); EC50 (U87 cells; Homo sapiens, U-87 MG, 72 h): 22 µM
0.6 µM | 0.88 µM | 1.2 µM | – | – | COC1CC(C(=O)NC(=O)Nc2ccc(Oc3ncc(C)s3)c(C)c2)C1 (stereo not shown) [Compound 60, 3-methoxy-N-((3-methyl-4-((5-methylthiazol-2-yl)oxy)phenyl)carbamoyl)cyclobutane-1-carboxamide] | EC50 (U87 cells; Homo sapiens, U-87 MG, 72 h): 0.32 µM
– | – | – | 13 to 17 µM (≈ 4.63 to 6.06 µg/mL) | 20 to 60 nM | COC1CC(C(=O)NC(=O)Nc2ccc(C)c(Oc3ncccn3)c2)C1 (stereo not shown) [drawing 282, 3-methoxy-N-((4-methyl-3-(pyrimidin-2-yloxy)phenyl)carbamoyl)cyclobutane-1-carboxamide] | –
